110 compounds from a melting point compilation (Tetko et al.) can be followed below.

A word on the melting point: it is the temperature of the solid-liquid transition. In the case of `O=C1C=C(NCCCc2ccccc2)C(=O)c2ccccc21`, the melting point was found to be 116 °C.

Compound `C=C(C)CNC(=S)NC` returned a melting point of 60 to 64 °C.

Compound `ON=Cc1c(Cl)cccc1Cl` came in with a melting point of 149 °C.

On to `O=C1Nc2ccccc2C=NC2CCCCC2N=Cc2ccccc2NC1=O` (stereo not given), for which the melting point lay in the range of 223 to 225 °C.

`COc1ccc(/C=C2\SC(=S)N(CN3CCOCC3)C2=O)cc1` showed a melting point of 133 °C.

In turn, `CC1=C(C(=O)O)N2C(=O)C(NC(=O)C(N)c3ccccc3)C2SC1` (stereo not given) gave a melting point of 327 °C.

Compound `Cc1nc(-c2cccc(CBr)c2)no1` yielded a melting point of 71 to 72 °C.

The compound `CNC(=O)NC` registered a melting point of 108 °C.

`O=C(Nc1ccc(Br)cc1Br)C(C(F)(F)F)(C(F)(F)F)C(F)(F)F` gave a melting point of 228 to 230 °C.

`NCCCOCCCCOCCCN` came in with a melting point of 4.5 °C.

Compound `c1ccc2c(c1)ccc1ncccc12` came in with a melting point of 94 °C.

Turning to `COc1ccc(NN=c2c(C)nc3ccccc3[nH]c2=O)cc1`, the melting point worked out at 196 °C.

In turn, `O=S(=O)(Cl)c1ccc(Cl)cc1Cl` showed a melting point of 54 °C.

As to `O=C1CCC2(O)C3Cc4ccc(O)c5c4C2(CCN3CC2CC2)C1O5` (stereo not given), the melting point was 169 °C.

As for `C=C1C(=O)C23C(OC(C)=O)CC4C5(C)CCCC4(C(O)OC5)C2C(OC(C)=O)CC1C3OC(C)=O` (stereo not given), the melting point turned out to be 226 °C.

Compound `O=C(O)c1ccc(Br)o1` yielded a melting point of 190 °C.

In turn, `O=[N+]([O-])CC(Nc1ccccc1)c1cccc(C(C[N+](=O)[O-])Nc2ccccc2)c1` (stereo not given) showed a melting point of 127 °C.

`CC(=NNC(=O)c1ccncc1)c1ccco1` came in with a melting point of 199 °C.

`COC(=O)c1sc(SC)c(S(=O)(=O)C(C)C)c1N` returned a melting point of 151 to 155 °C.

The compound `Cc1cc(C)c(C(N)=O)c(N)n1` returned a melting point of 172 to 174 °C.

With `COC(=O)c1ccc(CCl)cc1`, the melting point was determined as 40 °C.

For the compound `CCOC(=O)C1=C(C)NC(=O)NC1c1cccc([N+](=O)[O-])c1` (stereo not given), the melting point came out at 228 °C.

The compound `CC(=O)c1cccnc1C(=O)OC(C)C` came in with a melting point of 40 °C.

`CC=C(OC)C(=O)O` showed a melting point of 58 °C.

On to `O=C(Nc1ccc(Oc2ccc(Cl)cc2)c(Cl)c1)c1cc(I)cc(I)c1O`, for which the melting point turned out to be 169 °C.

As for `C1CSC1`, the melting point was -73.2 °C.

With `COc1ccc([N+](=O)[O-])c(SC(C)C(=O)O)n1` (stereo not given), the melting point was in the range of 196 to 199 °C.

For `CCN(CCO)S(=O)(=O)C(F)(F)C(F)(F)C(F)(F)C(F)(F)C(F)(F)C(F)(F)C(F)(F)C(F)(F)F`, the melting point lay in the range of 55 to 60 °C.

`CCCCCCCCCCC(=O)CCCCC` registered a melting point of 37 °C.

For `O=c1c2ccccc2cc2ccccn12`, the melting point is 166 °C.

`Cc1c(O)ncnc1Cl` came in with a melting point of 202 °C.

`CN1C2CCCC1CC(=O)C2` returned a melting point of 63 to 65 °C.

In the case of `N#Cc1ccnc(N)c1`, the melting point came out at 150 °C.

Regarding `CN(C)c1ccc(N=C=S)cc1`, the melting point lay within 69 to 71 °C.

The compound `NCC(O)CC(=O)O` (racemic) had a melting point of 202 °C.

`CC(=O)NC1C2CCC(C)(C1NC(C)=O)C2(C)C` (stereo not given) returned a melting point of 309 °C.

For the compound `Cc1ccc(S(=O)(=O)NN=Cc2ccccc2[N+](=O)[O-])cc1`, the melting point was 153 to 156 °C.

`CSc1nc2[nH]c(=S)n(-c3ccccc3C(=O)O)c(=O)c2n1C` returned a melting point of 284 °C.

Take `Cc1nc(-c2cccc(C=O)c2)cs1`: the melting point lay within 76 to 80 °C.

Compound `Cc1cc(C(F)(F)F)cc(=O)[nH]1` showed a melting point of 130 °C.

The compound `O=C(Nc1ccccc1)c1nn(-c2ccccc2)c(-c2ccc([N+](=O)[O-])cc2)c1S(=O)(=O)c1ccccc1` came in with a melting point of 240 °C.

`N=c1sc(C(=O)c2cccs2)nn1-c1[nH]nc(-c2ccccc2)c1Br` registered a melting point of 102 to 103 °C.

Turning to `O=C1CCCC(=O)O1`, the melting point is 56.3 °C.

In turn, `COC(=O)c1cccoc1=O` displayed a melting point of 76 °C.

Compound `CN(C)c1cccc(C(=O)O)c1` gave a melting point of 151 °C.

The compound `COc1ccc(C(=O)c2cccc(Br)c2)cc1OC` gave a melting point of 97 °C.

`CC1(C)OC(C)(C(O)C2CCCCC2)CCC1C(=O)O` (stereo not given) displayed a melting point of 181 °C.

Consider `CC(C)(C)OC(=O)NCC(N)=S`, for which the melting point was in the range of 129 to 131 °C.

The compound `CC(=O)OC1CC2C(C)C(=O)C3(C(OC(C)=O)CC4C(C)(C)CCC(OC(C)=O)C4(C=O)C13)C2OC(C)=O` (stereo not given) yielded a melting point of 250 to 252 °C.

The compound `O=C1C2=C(O)CCCC2Cc2ccccc21` (stereo not given) returned a melting point of 79 °C.

Compound `CC1(C)C=CC=C(C(=O)O)C=C1` gave a melting point of 88.5 °C.

`CCCCCCCCCCCCCCCCCCCCCCC(=O)O` registered a melting point of 79 to 80 °C.

Take `c1ccc(Cc2ccc3c4ccccc4c4ccccc4c3c2Cc2ccccc2)cc1`: the melting point was 178 °C.

Consider `CCC(C)C1(CC)C(=O)NC(=O)NC1=O` (stereo not given), for which the melting point worked out at 167 °C.

In turn, `Clc1ncnc2[nH]cnc12` had a melting point of 300 °C.

Turning to `c1ccc(Nc2ccccn2)nc1`, the melting point worked out at 90.5 °C.

For `O=C(O)c1ccnnc1`, the melting point is 237 to 240 °C.

As to `O=C(Nc1cccnc1Cl)c1ccc(Cl)cc1`, the melting point lay in the range of 146 to 148 °C.

The compound `CC(C)C1(NC(=O)c2ccccc2)COCOC1=O` (racemic) had a melting point of 161 to 162 °C.

`COc1cc(C2Nn3c(nnc3-c3cccc([N+](=O)[O-])c3)S2)ccc1O` (stereo not given) came in with a melting point of 165 °C.

Consider `COC1C(C2COC3(CCCCC3)O2)OC2OC3(CCCCC3)OC21` (stereo not given), for which the melting point is 35 to 38 °C.

For `Nc1ccc(N=O)c(N)n1`, the melting point lay within 260 to 266 °C.

With `COc1ccc(OC)c(NC(N)=S)c1`, the melting point came to 160 °C.

In turn, `Cc1ccc(-n2cccc2C=O)cc1` gave a melting point of 48 to 50 °C.

In the case of `O=C(O)CCOc1ccc2c(c1)[nH]c1ccccc12`, the melting point was 184 °C.

With `O=C(C=Cc1ccc(Br)o1)c1ccco1`, the melting point lay in the range of 76 to 78 °C.

As to `Cc1nc2sccn2c1C(=O)O`, the melting point was in the range of 164 to 165 °C.

In the case of `C=CCC1(CC=C)C(=O)NC(=O)NC1=O`, the melting point was in the range of 172 to 173 °C.

On to `CC1(C)OC(=O)C(=NNc2ccc(Cl)cc2)C(=O)O1`, for which the melting point was determined as 156 °C.

Compound `O=C1CCC2C1C1CCC(=O)C21` (stereo not given) registered a melting point of 266 °C.

In turn, `CCC(CO)NCCNC(CC)CO` (stereo not given) came in with a melting point of 89 °C.

Compound `FC(F)C(F)(F)C(F)(F)C(F)(F)C(F)(F)C(F)(F)C(F)(F)C(F)(F)C(F)(F)C(F)F` returned a melting point of 42 to 43 °C.

The compound `OCc1cn2ccccc2n1` came in with a melting point of 102 to 103 °C.

In turn, `CC12CCC(C(Br)(CBr)C1=O)C2(C)C` (stereo not given) displayed a melting point of 109 °C.

Regarding `Fc1ncccc1-c1ccc(Cl)cn1`, the melting point worked out at 100 °C.

Turning to `Nc1ccc(S(=O)(=O)Nc2ccnn2-c2ccccc2)cc1`, the melting point was 181 °C.

The compound `CCN(CC)c1ccc2cc(C(=O)c3cc4ccc(N(CC)CC)cc4oc3=O)c(=O)oc2c1` registered a melting point of 214 °C.

Take `Cc1ccccc1NC(=O)c1cncc(Cl)n1`: the melting point came out at 98 °C.

With `CCOC(=O)c1cc(I)c(N)c(I)c1`, the melting point fell in the range of 145 to 146 °C.

In the case of `CC(=O)NCCN`, the melting point came out at 47 °C.

Turning to `O=C(C(=O)C(Br)c1ccccc1)C(Br)c1ccccc1` (stereo not given), the melting point was 124 °C.

`CSc1ccc2ccccc2c1` gave a melting point of 63 °C.

As for `NC(=O)Oc1ccc(Cc2ccccc2)cc1`, the melting point was found to be 148 °C.

As for `CN(C)c1ccc(N=C(C#N)c2cccc(C(C#N)=Nc3ccc(N(C)C)cc3)c2)cc1`, the melting point was 150 °C.

Turning to `NC=NO`, the melting point amounted to 114 °C.

In turn, `CC(=O)c1sccc1N` came in with a melting point of 86 to 88 °C.

On to `O=[N+]([O-])c1cc(C(F)(F)F)c(Cl)cc1Cl`, for which the melting point was found to be 55 °C.

`CCS(=O)CCSP(=O)(OC)OC` (stereo not given) came in with a melting point of -49 °C.

The compound `CC(=O)c1ccc(F)c(Br)c1` gave a melting point of 56 °C.

The compound `Brc1cccc(Oc2ccc(Br)cc2Br)c1` returned a melting point of less than 20 °C.

As to `N#Cc1c(F)cccc1Sc1ccc(Cl)cc1`, the melting point was determined as 70 °C.

On to `NCC(O)COc1ccccc1` (stereo not given), for which the melting point was determined as 146 °C.

In turn, `CCCCCCCCCCCCCCCCCCCCCCCCCC(=O)O` yielded a melting point of 88.5 °C.

In turn, `FC(F)(F)C1(F)C(F)(F)C(F)(F)C(F)(F)C(F)(C(F)(F)F)C1(F)F` (stereo not given) gave a melting point of -55 °C.

`O=C(O)c1nccc2ccccc12` yielded a melting point of 160 to 165 °C.

As for `O=C(Cl)c1cc(Cl)nc2ccc(Br)cc12`, the melting point lay in the range of 140 to 142 °C.

`OCc1cccc(OCc2ccccc2)c1` registered a melting point of 49 °C.

In turn, `COC(=O)c1cc(O)nc(O)n1` returned a melting point of 244 °C.

As to `CCC(Cl)CC`, the melting point is -105 °C.

As for `O=C(Nc1cccc(N=[N+]([O-])c2cccc(NC(=O)c3ccccc3)c2)c1)c1ccccc1`, the melting point came to 247 °C.

In turn, `Cc1cc(C2(c3cc(C)c(O)c(Br)c3C)OS(=O)(=O)c3ccccc32)c(C)c(Br)c1O` registered a melting point of 218 °C.

`C=C1CC2C3C=C(C)C4=CC(=O)CCC4(C)C3CCC2(C)C1(OC(C)=O)C(C)=O` (stereo not given) returned a melting point of 224 °C.

In turn, `CC12CCC3C(CCC4CC(=O)CCC43C)C1CC(=O)C2` (stereo not given) showed a melting point of 163 °C.

As for `CCOC(=O)c1ccncc1`, the melting point came to 23 °C.

Consider `CCCCCOC(=O)CCCCC`, for which the melting point is -47 °C.

In turn, `CC(=O)Nc1ccc(Cl)cc1C` registered a melting point of 136 to 138 °C.

For `CNC(=O)ON=C(SC)C(=O)N(C)C`, the melting point worked out at 101 °C.

`Cc1cccc(Nc2ccccc2C(=O)O)c1C`: the melting point was determined as 231 °C.

Take `BrCc1cccc2cccnc12`: the melting point was 81 to 82 °C.

`C#CCOc1ccc(N)cc1C(=O)NCCCC` returned a melting point of 84 °C.
